According to patent publication US9926375B2, “Anti-endoglin antibodies and uses thereof” (Tracon Pharmaceuticals, Inc., priority 2014, dated 2018):

Test system: NASH mice
Assay: Murine model of non-alcoholic steatohepatitis (NASH; STZ and high fat diet)
Type: in vivo, mouse
Description: The purpose of this study was to examine the protective effects of endoglin antibodies on a murine model of NASH.
NASH was established by a single subcutaneous injection of STZ (Sigma, USA) after birth and feeding with a high fat diet (HFD; CLEA Japan, Japan) ad libitum after 4 weeks of age (day 28±2).
Randomization of mice into 6 groups of 10 mice was done at 9 weeks of age (day 63±2), the day before the start of treatment.
Group 3 (Positive control; Temlisartan Group): Ten NASH mice were be orally administered pure water supplemented with telmisartan at a dose of 10 mg/kg once daily from day 63 to 84.
Group 4 (Antibody M1043: M1043 Group): Ten NASH mice were intravenously administered vehicle supplemented with Antibody M1043 at a dose of 10 mg/kg twice weekly at day 63, 66, 70, 73, 77 and 80.
Group 5 (Antibody TRC105; TRC105 Group): Ten NASH mice were intravenously administered vehicle supplemented with Antibody TRC105 at a dose of 10 mg/kg twice weekly at day 63, 66, 70, 73, 77 and 80.
Group 6 (Antibody TRC205; TRC205 Group): Ten NASH mice were intravenously administered vehicle supplemented with Antibody TRC205 at a dose of 10 mg/kg twice weekly at days 63, 66, 70, 73, 77 and 80.
Mice in all groups were terminated for the following assays at 12 weeks of age.
H&E staining of liver tissue was conducted to estimate NAFLD Activity score.
Total NAS score represents the sum of scores for steatosis, lobular inflammation, and ballooning, and ranges from 0-8. Diagnosis of NASH (or, alternatively, fatty liver not diagnostic of NASH) should be made first, then NAS is used to grade activity. In the reference study, NAS scores of 0-2 occurred in cases largely considered not diagnostic of NASH, scores of 3-4 were evenly divided among those considered not diagnostic, borderline, or positive for NASH. Scores of 5-8 occurred in cases that were largely considered diagnostic of NASH.
Statistical tests were performed using Bonferroni Multiple Comparison Test. P values<0.05 were considered statistically significant.

[1] = liver gene expression, mean ± SD, Normal-Vehicle 1.0

In the case of `CCCc1nc2c(C)cc(-c3nc4ccccc4n3C)cc2n1Cc1ccc(-c2ccccc2C(=O)O)cc1` [Telmisartan, telmisartan, reference compound], the “Alpha-smooth muscle actin mRNA expression levels compared with the NASH-Vehicle group” value (Bonferroni, P<0.05) is reported as “significantly down-regulated”, the “Liver triglyceride contents compared with the NASH-Vehicle group” value (Bonferroni, P<0.05) is reported as “significant decreases” and the “Macrophage chemoattractant protein-1 mRNA expression levels compared with the NASH-Vehicle group” value (Bonferroni, P<0.05) is reported as “tended to decrease”. The “Mean liver weight compared with the NASH-Vehicle group” value (Bonferroni, P<0.05) was “significant decrease”, the “Mean liver-to-body weight ratio compared with the NASH-Vehicle group” value (Bonferroni, P<0.05) was “significant decreases” and the “NAS compared with the NASH-Vehicle group” value (Bonferroni, P<0.05) was “significant decreases in NAS”. The “Serum alanine aminotransferase (ALT) levels compared with the NASH-Vehicle group” value (Bonferroni, P<0.05) was “tended to decrease”, the “Sirius red-positive area compared with the NASH-Vehicle group” value (Bonferroni, P<0.05) was “significant decrease” and the “F4/80-positive signals and cells in liver compared with the NASH-Vehicle group” value (F4/80 immunostaining, macrophage marker) was “No obvious changes”. The “Alpha-SMA mRNA expression” value [1] was 0.7 ± 0.3, the “MCP-1 mRNA expression” value [1] was 1.5 ± 1.1 and the “TIMP-1 mRNA expression” value [1] was 5.8 ± 3.7. For the same compound, the “TNF-α mRNA expression” value [1] was 3.2 ± 2.3, the Liver triglyceride (mean ± SD) was 23.5 ± 10.6 mg/g liver and the “Serum ALP” value (mean ± SD) was 444 ± 134 U/L. The “Serum ALT” value (mean ± SD) was 29 ± 15 U/L, the “Serum AST” value (mean ± SD) was 113 ± 32 U/L and the Sirius red-positive area (mean ± SD, liver sections) was 0.67 ± 0.12%. The “NAS (NAFLD Activity score)” value (mean ± SD, range 0-8, 10 mg/kg) was 3.3 ± 1.2, the “Lobular inflammation score 0, number of mice” value (score 0 = No Foci) was 3 and the “Hepatocyte ballooning score 0, number of mice” value (score 0 = None) was 1. The “Steatosis score 1, number of mice” value (score 1 = 5-33%) was 9, the “Lobular inflammation score 1, number of mice” value (score 1 = <2 foci/200x) was 4 and the “Hepatocyte ballooning score 1, number of mice” value (score 1 = Few balloon cells) was 3. For the same compound, the “Lobular inflammation score 2, number of mice” value (score 2 = 2-4 foci/200x) was 2 and the “Hepatocyte ballooning score 2, number of mice” value (score 2 = Many cells/prominent ballooning) was 5.
